The record followed here is PMC5715787, “Structural basis for antibody recognition of the NANP repeats in Plasmodium falciparum circumsporozoite protein” (Proceedings of the National Academy of Sciences of the …, 2017).

For one test, the target named is Fab311. Briefly: ITC affinity measurement of peptides to Fab311. Type of test: binding, human. The settings on record: for affinity/Kd compared with the (NPNA)3 peptide: Fab311, ITC, change vs (NPNA)3; for Kd / No. of sites: ITC, 25 °C, Dulbecco's PBS, Fab311 10.3 μM in cell, peptide 89–122 μM in syringe, single-site model, average and SD of triplicate experiments. Here is the method: (§1) ITC affinity measurements were performed using a MicroCal Auto-iTC200 instrument (GE Healthcare). […]
(§2) General. All peptides were ordered from Innopep Inc. with a 10-μg/mL solution of the Fab of interest in blocking buffer. The purity of >98% and contained chlorine counter ions. The pep- membrane was then washed three times for 5 min each in TBST tides have N-terminal acetylation and C-terminal amidation to buffer, after which it was incubated for 2 h with an anti-human eliminate charges at the peptide termini. Fab genes were codon Fab secondary antibody conjugated to HRP (Sigma-Aldrich) at a optimized, synthesized, and cloned into pHCMV3 vectors by 1:20,000 dilution in blocking buffer. […]
(§3) Antibodies 311 and 317 were selected forITC. A MicroCal Auto-iTC200 (GE Healthcare) was used to structural studies because of their functional activity, high avidity perform ITC measurements. Before the experiments, all proteins index, and similar heavy-chain germline genes. were extensively dialyzed against Dulbecco’s PBS (Thermo Evaluation of the Protective Activity of mAbs. mAbs (100 μg for Fischer). The peptides were placed in the syringe at a concentration Ab311 and 300 μg for Ab317 and Ab2A10) against the NANP of 122μM for Ac-NPNANPNA-NH2, 116 μM for Ac-repeats of P. falciparum CSP were administered to 7- to 8-wk-old NPNANPNANPNA-NH2,89μM for Ac-[…]- […]
(§4) C57BL/6 mice (five mice per group) by i.v. injection [in 200 μLof NH2, and 110 μM for Ac-DPNANPNVDPNA-NH2, whereas the […]
(§5) PBS (pH 7.4)]. The mice were challenged 5–10 min later by i.v. concentrations of Fab fragments in the cell were 10.3 and 9.7 μM injection with 2,000 P. berghei chimeric sporozoites expressing for Fab311 and Fab317, respectively. The Fab and peptide P. falciparum CSP (3D7 strain) generated as previously described concentrations were determined by UV absorbance at 280 nm (22). Forty hours later, livers were harvested, and RNA was and 205 nm. Molar extinction coefficients for the peptides were isolated to quantify the malaria-specific 18s rRNA levels by real- estimated using a previously published method (35). Experi-time PCR (34). Inhibition of parasite development was calcu- ments were carried out in triplicate at 25 °C, except for lated by comparing the parasite liver burdens of experimental Fab317 binding to Ac-[…]-NH2, which was […]
(§6) and naive control mice. The statistical analyses were done with done in duplicate, and consisted of 16 injections of 2.45 μL each, the Mann–Whitney U test. Data were plotted using GraphPad with injection duration of 4.9 s, inject io n interval of 180 s, and Prism 6.0 software. No samples were excluded from statistical reference power of 5 μCa l. Fi tt in g of the integrate d titrati on analyses. peaks was performed with Origin 7.0 software using a single-site binding model. The first data point and any outliers were Expression and Purification of Recombinant CSP. The rsCSP con- excluded from the fit. […]
(§7) Two 1-L NaCl, 2.7 mM KCl, pH 8.0) with a 5:1 molar ratio of (NPNA)3 cultures were inoculated the next day with 25 mL overnight peptide to Fab. Crystals were grown using sitting-drop vapor culture and were grown at 37 °C. When the optical density at diffusion with a well solution containing 0.1 M MES (pH 6.0), 600 nm reached a value of 1, the cultures were induced with 36% PEG400, 5% PEG3000 for the Fab311–peptide complex, 1 mM isopropyl β-D-1-thiogalactopyranoside for 6 h. The cells and 0.1 M sodium citrate (pH 4.0), 1 M lithium chloride, 20% then were harvested and lysed by microfluidization. The lysate PEG6000 for the Fab317–peptide complex. Crystals were grown was incubated overnight with Ni cOmplete resin (Roche) and at 298 K and typically appeared within 3 d. Fab311–peptide was eluted using a buffer containing 200 mM imidazole. Typi- crystals were cryo-cooled without additional cryoprotection, cally, 10 mg of protein was obtained per 2 L of culture. Samples while Fab317–peptide crystals were cryoprotected by soaking in […]

A further test has as its target Fab317. Nature of the test: ITC affinity measurement of peptides to Fab317. Type of test: binding, human. The settings on record: for Kd / No. of sites: ITC, 25 °C, Dulbecco's PBS, Fab317 9.7 μM in cell, single-site model. As to the method: as §1, §2, §3, §4, §5, §6, §7
[1] abbreviates: peptide 110–122 μM in syringe, average and SD of triplicate experiments.
[2] abbreviates: peptide 89 μM in syringe, duplicate experiments.

Turning to `CC(=O)N[C@@H](CC(N)=O)C(=O)N1CCC[C@H]1C(=O)N[C@@H](CC(N)=O)C(=O)N[C@@H](C)C(=O)N[C@@H](CC(N)=O)C(=O)N1CCC[C@H]1C(=O)N[C@@H](CC(N)=O)C(=O)N[C@@H](C)C(N)=O` [(NPNA)2, Ac-NPNANPNA-NH2], on Fab311, the “affinity/Kd compared with the (NPNA)3 peptide” value was “almost identical to that of the (NPNA)3 peptide”, the Kd was 296 ± 19 nM and the No. of sites is on record as 1.50 ± 0.08. For the same compound, the “Kd increase compared with (NPNA)3” value at Fab317 (Fab317, ITC, vs (NPNA)3) was determined as 2.2 fold. In addition, at Fab317 (setting [1]), the Kd came to 173 ± 8 nM and the No. of sites worked out at 1.41 ± 0.05.

For the compound `CC(=O)N[C@@H](CC(N)=O)C(=O)N1CCC[C@H]1C(=O)N[C@@H](CC(N)=O)C(=O)N[C@@H](C)C(=O)N[C@@H](CC(N)=O)C(=O)N1CCC[C@H]1C(=O)N[C@@H](CC(N)=O)C(=O)N[C@@H](C)C(=O)N[C@@H](CC(N)=O)C(=O)N1CCC[C@H]1C(=O)N[C@@H](CC(N)=O)C(=O)N[C@@H](C)C(N)=O` [(NPNA)3, Ac-NPNANPNANPNA-NH2], at Fab311, the Kd was 305 ± 60 nM and the No. of sites is 0.74 ± 0.02. For the same compound, on Fab317 (setting [1]), the affinity, expressed as Kd, was 78 ± 16 nM and the No. of sites was 1.27 ± 0.02.

Regarding “Ac-DPNANPNVDPNA-NH2 [DPNANPNVDPNA, Ac-DPNANPNVDPNA-NH2]”, on Fab311, the “affinity/Kd compared with the (NPNA)3 peptide” value is “approximately fivefold lower affinity”, the Kd was determined as 1370 ± 390 nM and the No. of sites came out at 1.20 ± 0.03. At Fab317 (setting [1]), this compound came in with a Kd of 448 ± 68 nM and a No. of sites of 1.64 ± 0.05.

Turning to “Ac-NPNVDPNANPNV-NH2 [NPNVDPNANPNV, Ac-NPNVDPNANPNV-NH2]”, at Fab311, the “affinity/Kd compared with the (NPNA)3 peptide” value is listed as “approximately fivefold lower affinity”, binding was characterised by a dissociation constant (Kd) of 1790 ± 189 nM and the No. of sites is 1.24 ± 0.02. Moreover, the “relative affinity (in words)” value in the test with Fab317 (Fab317, ITC, NVDP-containing peptides, comparator not clearly stated) is “substantially lower”. At Fab317 (setting [2]), binding was characterised by a dissociation constant (Kd) of 12100 ± 2490 nM and the No. of sites was 1.72 ± 0.13.
